Laboratory results taken from patent US9833497B2, “Human originated EGF domain proteins and use of the same” (CHENGDU SOURCEBIO LIMITED-LIABILITY COMPANY, priority 2013, dated 2017).

What was measured:
Type in all cases: cell-based
[1] = test system: E. coli BL21; experiment: MIC against Gram-negative bacteria: E. coli BL21; details: E. coli BL21, 5×10^5 CFU/mL
In short: (§1)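 Read-out is absence of bacterial growth, with MIC set at the lowest recombinant protein concentration achieving it. Bacteria, pre-grown in LB to McFarland 0.5 and resuspended, were exposed at 5×10^5 CFU/mL to two-fold diluted human EGF domain proteins in triplicate at 37° C, 175 rpm.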

[2] = test system: Pseudomonas aeruginosa; experiment: MIC against Gram-negative bacteria: Pseudomonas aeruginosa; details: 5×10^5 CFU/mL; for MIC against P. aeruginosa: Pseudomonas aeruginosa
In short: as §1

[3] = test system: Moraxella catarrhalis; experiment: MIC against Gram-negative bacteria: Moraxella catarrhalis; details: 5×10^5 CFU/mL; for MIC against M. catarrhalis: Moraxella catarrhalis
In short: as §1

[4] = test system: Serratia marcescens; experiment: MIC against Gram-negative bacteria: Serratia marcescens; details: 5×10^5 CFU/mL; for MIC against S. marcescens: Serratia marcescens
In short: as §1

[5] = test system: Klebsiella pneumonia; experiment: MIC against Gram-negative bacteria: Klebsiella pneumonia; details: 5×10^5 CFU/mL; for MIC against K. pneumonia: Klebsiella pneumonia
In short: as §1

[6] = test system: Proteus mirabilis; experiment: MIC against Gram-negative bacteria: Proteus mirabilis; details: 5×10^5 CFU/mL; for MIC against P. mirabilis: Proteus mirabilis
In short: as §1

[7] = test system: Citrobacter diversus; experiment: MIC against Gram-negative bacteria: Citrobacter diversus; details: 5×10^5 CFU/mL; for MIC against C. diversus: Citrobacter diversus
In short: as §1

[8] = test system: Proteus vulgaris; experiment: MIC against Gram-negative bacteria: Proteus vulgaris; details: 5×10^5 CFU/mL; for MIC against P. vulgaris: Proteus vulgaris
In short: as §1

[9] = test system: Enterobacter cloacae; experiment: MIC against Gram-negative bacteria: Enterobacter cloacae; details: 5×10^5 CFU/mL; for MIC against E. cloacae: Enterobacter cloacae
In short: as §1

[10] = test system: E. coli DH5α; experiment: Antibacterial activity: MIC and growth curve against E. coli DH5α in 96-well plate; details: minimal inhibitory concentration against E. coli DH5α; 96-well plate, 5×10^5 CFU/mL, 37° C., judged after 8 h
In short: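 Log-phase DH5α (OD600 about 0.5, 37° C, 185 rpm in LB) was pelleted, resuspended in fresh LB and seeded at 5×10^5 CFU/mL with recombinant protein at 50, 25 and 12.5 μg/mL (two-fold series), in triplicate. Plates were shaken at 175 rpm, 37° C, and OD600 was read every 30 min. MIC was the lowest concentration with no growth.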

[11] = test system: Aeromonas hydrophila; experiment: MIC against Gram-negative bacteria: Aeromonas hydrophila; details: 5×10^5 CFU/mL; for MIC against A. hydrophila: Aeromonas hydrophila
In short: as §1

Row | Substance | MIC against E. coli BL21 ([1]; 96-well plate, 37° C., 10 h) [µg/mL] | MIC against P. aeruginosa ([2]; 96-well plate, 37° C., 10 h) [µg/mL] | MIC against M. catarrhalis ([3]; 96-well plate, 37° C., 10 h) [µg/mL] | MIC against S. marcescens ([4]; 96-well plate, 37° C., 10 h) [µg/mL] | MIC against K. pneumonia ([5]; 96-well plate, 37° C., 10 h) [µg/mL] | MIC against P. mirabilis ([6]; 96-well plate, 37° C., 10 h) [µg/mL] | MIC against C. diversus ([7]; 96-well plate, 37° C., 10 h) [µg/mL] | MIC against P. vulgaris ([8]; 96-well plate, 37° C., 10 h) [µg/mL] | MIC against E. cloacae ([9]; 96-well plate, 37° C., 10 h) [µg/mL] | MIC [10] [µg/mL] | MIC (μg/mL) E. coli BL21 ([1]; 10 h cultivation at 37° C.) [µg/mL] | MIC (μg/mL) P. aeruginosa ([2]; 10 h cultivation at 37° C.) [µg/mL] | MIC (μg/mL) M. catarrhalis ([3]; 10 h cultivation at 37° C.) [µg/mL] | MIC (μg/mL) S. marcescens ([4]; 10 h cultivation at 37° C.) [µg/mL] | MIC (μg/mL) K. pneumonia ([5]; 10 h cultivation at 37° C.) [µg/mL] | MIC (μg/mL) P. mirabilis ([6]; 10 h cultivation at 37° C.) [µg/mL] | MIC (μg/mL) C. diversus ([7]; 10 h cultivation at 37° C.) [µg/mL] | MIC (μg/mL) P. vulgaris ([8]; 10 h cultivation at 37° C.) [µg/mL] | MIC (μg/mL) E. cloacae ([9]; 10 h cultivation at 37° C.) [µg/mL] | MIC (μg/mL) A. hydrophila ([11]; 10 h cultivation at 37° C.) [µg/mL] | other results
1 | PRT1263 (DVDECAQGLDDCHADALCQNTPTSYKCSCKPGYQGEGRQCE; listed as Homo sapiens) | 50 | 12.5 | 12.5 | 50 | 25 | 50 | 50 | 12.5 | 50 | 100 | – | – | – | – | – | – | – | – | – | – | MIC against A. hydrophila ([11]; 96-well plate, 37° C., 10 h): 12.5 µg/mL
2 | PRT853 (DLNECGLKPRPCKHRCMNTYGSYKCYCLNGYMLMPDGSCS; listed as Homo sapiens) | – | – | – | – | – | – | – | – | – | 25 | 12.5 | 25 | 50 | 12.5 | 50 | 25 | 25 | 25 | 25 | 12.5 | –
3 | PRT219 (DIDECRTSSYLCQYQCVNEPGKFSCMCPQGYQVVRSRTCQ; listed as Homo sapiens) | – | – | – | – | – | – | – | – | – | 12.5 | 25 | 50 | 12.5 | 12.5 | 12.5 | 12.5 | 12.5 | 25 | 12.5 | 12.5 | –
4 | PRT1292 (NVDDCEDNDCENNSTCVDGINNYTCLCPPEYTGELCE; listed as Homo sapiens) | 12.5 | 12.5 | 50 | 12.5 | 12.5 | 12.5 | 12.5 | 50 | 50 | 12.5 | – | – | – | – | – | – | – | – | – | – | MIC against A. hydrophila ([11]; 96-well plate, 37° C., 10 h): 25 µg/mL
5 | PRT259 (GGCHTDALCSYVGPGQSRCTCKLGFAGDGYQC; listed as Homo sapiens) | – | – | – | – | – | – | – | – | – | 12.5 | 25 | 50 | 12.5 | 25 | 12.5 | 25 | 50 | 50 | 50 | 12.5 | –
6 | PRT1465 (CECDSLGTLPGTICDPISGQCLCVPNRQGRRCNQCQPGFYISPGNATGCLP; listed as Homo sapiens) | – | – | – | – | – | – | – | – | – | 12.5 | – | – | – | – | – | – | – | – | – | – | MIC against E. coli BL21 ([1]; 10 h cultivation at 37° C.): 25 µg/mL; MIC against P. aeruginosa ([2]; 10 h cultivation at 37° C.): 50 µg/mL; MIC against M. catarrhalis ([3]; 10 h cultivation at 37° C.): 12.5 µg/mL; MIC against S. marcescens ([4]; 10 h cultivation at 37° C.): 12.5 µg/mL; MIC against K. pneumonia ([5]; 10 h cultivation at 37° C.): 12.5 µg/mL; MIC against P. mirabilis ([6]; 10 h cultivation at 37° C.): 50 µg/mL; MIC against C. diversus ([7]; 10 h cultivation at 37° C.): 25 µg/mL; MIC against P. vulgaris ([8]; 10 h cultivation at 37° C.): 25 µg/mL; MIC against E. cloacae ([9]; 10 h cultivation at 37° C.): 25 µg/mL; MIC against A. hydrophila ([11]; 10 h cultivation at 37° C.): 50 µg/mL
